In the supplement of paper PMC11208160:

Experiment: recombinant UMI read abundance after kanamycin selection (control-corrected) (log10(CPM+1)); higher = more efficient recombination; extreme values may be limits of the assay; sequences stand for … in AGTGCAGAGAAAATCGGCCAGTTTTCTCTGCCTGCAGTCCGCATGCCGTGGGACCCCTTGGGTTCTAACCTGTTGCCTAGATTTATGCAGCGGACTGCCTTTCTCCCAAAGTGATAAACCGG…AGGTTGGTTTCACT; site = the 11-nt donor
Summary of the method: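 Values are reported as log10(CPM+1), obtained by converting sequencing counts to CPM, averaging replicates and scaling by control-derived factors. The counts came from recombinant UMIs amplified by PCR across the donor–target junction. These UMIs came from a pooled Escherichia coli screen of donor and donor-binding-loop pairs for the IS621 bridge recombinase, plated with IPTG (0.07 mM) plus kanamycin or left unselected, in two replicates each.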
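Note: IS621 bridge recombinase in Escherichia coli cells against a fixed T5 target plasmid.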

Row | Sequence | recombinant UMI read abundance (log10)
1 | CTAGTATCATGGACCGGTTTTCCCGGTAATCCGTATTTGAC (site GTAGTGTCTGT) | 0.0419
2 | CTAGTATCATGGACCGGTTTTCCCGGTAATCCGTATTTGAC (site GTATTATCTGT) | 0
3 | CTAGTATCATGGACCGGTTTTCCCGGTAATCCGTATTTGAC (site GTTGTATCTGT) | 0.0569
4 | CTAGTATCATGGACCGGTTTTCCCGGTAATCCGTATTTGAC (site TAAGTATCTGT) | 0
5 | CTAGTATCATGGACCGGTTTTCCCGGTAATCCGTATTTGAC (site TTAATATCTGT) | 0
6 | CTAGTATCATGGACCGGTTTTCCCGGTAATCCGTATTTGAC (site TTAGAATCTGT) | 0
7 | CTAGTATCATGGACCGGTTTTCCCGGTAATCCGTATTTGAC (site TTAGTAACTGT) | 0
8 | CTAGTATCATGGACCGGTTTTCCCGGTAATCCGTATTTGAC (site TTAGTATCTCT) | 0
9 | CTAGTATCATGGACCGGTTTTCCCGGTAATCCGTATTTGAC (site TTAGTATCTGA) | 0
10 | CTAGTATCATGGACCGGTTTTCCCGGTAATCCGTATTTGAC (site TTAGTATCTGT) | 1.71
11 | CTAGTATCATGGACCGGTTTTCCCGGTAATCCGTATTTGAC (site TTAGTCTCTGT) | 0
12 | CTAGTATCATGGACCGGTTTTCCCGGTAATCCGTATTTGAC (site TTCGTATCTGT) | 0
13 | CTAGTATCATGGACCGGTTTTCCCGGTAATCCGTATTTGAT (site CTAGTATCTAT) | 2.21
14 | CTAGTATCATGGACCGGTTTTCCCGGTAATCCGTATTTGAT (site CTAGTATCTCT) | 0.557
15 | CTAGTATCATGGACCGGTTTTCCCGGTAATCCGTATTTGAT (site CTAGTATCTGT) | 1.31
16 | CTAGTATCATGGACCGGTTTTCCCGGTAATCCGTATTTGAT (site CTAGTATCTTT) | 1.07
17 | CTAGTATCATGGACCGGTTTTCCCGGTAATCCGTATTTGCA (site CTAGTATCTGT) | 0.00642
18 | CTAGTATCATGGACCGGTTTTCCCGGTAATCCGTATTTGCA (site CTAGTATCTTG) | 2.72
19 | CTAGTCCCATGGACCGGTTTTCCCGGTAATCCGTATTTGCT (site CTAGTCCCTAG) | 1.79
20 | CTAGTCCCATGGACCGGTTTTCCCGGTAATCCGTATTTGGA (site CTAGTCCCTTC) | 0.281
21 | CTAGTCGCATGGACCGGTTTTCCCGGTAATCCGTATTTGCG (site ATAGTCGCTCG) | 0.00637
22 | CTAGTCGCATGGACCGGTTTTCCCGGTAATCCGTATTTGCG (site CTAGTCGCTCG) | 0.966
23 | CTAGTCGCATGGACCGGTTTTCCCGGTAATCCGTATTTGCG (site GTAGTCGCTCG) | 0
24 | CTAGTCGCATGGACCGGTTTTCCCGGTAATCCGTATTTGCG (site TTAGTCGCTCG) | 0.0191
25 | CTAGTCTCATGGACCGGTTTTCCCGGTAATCCGTATTTGAC (site CTAGTATCTGT) | 0.627

Row | Sequence | recombinant UMI read abundance (log10)
26 | CTAGTCTCATGGACCGGTTTTCCCGGTAATCCGTATTTGAC (site CTAGTCTCTGT) | 2.93
27 | CTAGTCTCATGGACCGGTTTTCCCGGTAATCCGTATTTGAC (site CTAGTGTCTGT) | 0
28 | CTAGTCTCATGGACCGGTTTTCCCGGTAATCCGTATTTGAC (site CTAGTTTCTGT) | 0.799
29 | CTAGTGTCATGGACCGGTTTTCCCGGTAATCCGTATTTGAC (site CTAGTATCTGT) | 1.23
30 | CTAGTGTCATGGACCGGTTTTCCCGGTAATCCGTATTTGAC (site CTAGTCTCTGT) | 0
31 | CTAGTGTCATGGACCGGTTTTCCCGGTAATCCGTATTTGAC (site CTAGTGTCTGT) | 0
32 | CTAGTGTCATGGACCGGTTTTCCCGGTAATCCGTATTTGAC (site CTAGTTTCTGT) | 0
33 | CTAGTTACATGGACCGGTTTTCCCGGTAATCCGTATTTGTC (site CTAGTTACTGA) | 2.57
34 | CTATAAACATGGACCGGTTTTCCCGGTAATCCGTATTTGGA (site CTATAAACTTC) | 2.34
35 | CTATATGCATGGACCGGTTTTCCCGGTAATCCGTATTTGTA (site CTATATGCTTA) | 2.55
36 | CTATCATCATGGACCGGTTTTCCCGGTAATCCGTATTTGCG (site CGATCATCTAG) | 0
37 | CTATCATCATGGACCGGTTTTCCCGGTAATCCGTATTTGCG (site CTATCATCTCG) | 1.87
38 | CTATGATCATGGACCGGTTTTCCCGGTAATCCGTATTTGCG (site CTATGATCTCG) | 3.16
39 | CTATTACCATGGACCGGTTTTCCCGGTAATCCGTATTTGAC (site CTAGTATCTGT) | 0
40 | CTATTACCATGGACCGGTTTTCCCGGTAATCCGTATTTGAC (site CTATTACCTGT) | 0
41 | CTATTCCCATGGACCGGTTTTCCCGGTAATCCGTATTTGTT (site CTATTCCCTAA) | 1.42
42 | CTCAAGACATGGACCGGTTTTCCCGGTAATCCGTATTTGGG (site CTCAAGACTCC) | 0
43 | CTCATATCATGGACCGGTTTTCCCGGTAATCCGTATTTGTC (site CACATATCTGA) | 0.65
44 | CTCATATCATGGACCGGTTTTCCCGGTAATCCGTATTTGTC (site CCCATATCTGA) | 0.718
45 | CTCATATCATGGACCGGTTTTCCCGGTAATCCGTATTTGTC (site CGCATATCTGA) | 0
46 | CTCATATCATGGACCGGTTTTCCCGGTAATCCGTATTTGTC (site CTCATATCTGA) | 1.5
47 | CTCATCGCATGGACCGGTTTTCCCGGTAATCCGTATTTGCC (site CTCATCGCTGG) | 0.346
48 | CTCCACACATGGACCGGTTTTCCCGGTAATCCGTATTTGGG (site CTCCACACTCC) | 0.0377
49 | CTCCAGCCATGGACCGGTTTTCCCGGTAATCCGTATTTGAG (site CTCCAGCCTCT) | 0.0271
50 | CTCCCCACATGGACCGGTTTTCCCGGTAATCCGTATTTGAG (site CTCCCAACTCT) | 0.00953

Row | Sequence | recombinant UMI read abundance (log10)
51 | CTCCCCACATGGACCGGTTTTCCCGGTAATCCGTATTTGAG (site CTCCCCACTCT) | 0.891
52 | CTCCCCACATGGACCGGTTTTCCCGGTAATCCGTATTTGAG (site CTCCCGACTCT) | 0.0121
53 | CTCCCCACATGGACCGGTTTTCCCGGTAATCCGTATTTGAG (site CTCCCTACTCT) | 0
54 | CTCCCTACATGGACCGGTTTTCCCGGTAATCCGTATTTGCG (site CTCCCTACTCA) | 0.397
55 | CTCCCTACATGGACCGGTTTTCCCGGTAATCCGTATTTGCG (site CTCCCTACTCC) | 0.0203
56 | CTCCCTACATGGACCGGTTTTCCCGGTAATCCGTATTTGCG (site CTCCCTACTCG) | 0.488
57 | CTCCCTACATGGACCGGTTTTCCCGGTAATCCGTATTTGCG (site CTCCCTACTCT) | 0.55
58 | CTCCGGCCATGGACCGGTTTTCCCGGTAATCCGTATTTGCT (site CTCCGGCCTAG) | 0.589
59 | CTCCGTACATGGACCGGTTTTCCCGGTAATCCGTATTTGAG (site CTCCATACTCT) | 0.649
60 | CTCCGTACATGGACCGGTTTTCCCGGTAATCCGTATTTGAG (site CTCCCTACTCT) | 0.0126
61 | CTCCGTACATGGACCGGTTTTCCCGGTAATCCGTATTTGAG (site CTCCGTACTCT) | 0.509
62 | CTCCGTACATGGACCGGTTTTCCCGGTAATCCGTATTTGAG (site CTCCTTACTCT) | 0.0158
63 | CTCCTCCCATGGACCGGTTTTCCCGGTAATCCGTATTTGAC (site CTCCTCCCTGT) | 1.49
64 | CTCCTCGCATGGACCGGTTTTCCCGGTAATCCGTATTTGAA (site CTCCTCGCTTT) | 1.06
65 | CTCCTCTCATGGACCGGTTTTCCCGGTAATCCGTATTTGTA (site CTACTCTCTTA) | 0.176
66 | CTCCTCTCATGGACCGGTTTTCCCGGTAATCCGTATTTGTA (site CTCCTCTCTTA) | 2.45
67 | CTCCTCTCATGGACCGGTTTTCCCGGTAATCCGTATTTGTA (site CTGCTCTCTTA) | 0.0102
68 | CTCCTCTCATGGACCGGTTTTCCCGGTAATCCGTATTTGTA (site CTTCTCTCTTA) | 0
69 | CTCCTTGCATGGACCGGTTTTCCCGGTAATCCGTATTTGTA (site CTCCTTGCTTA) | 0
70 | CTCGAATCATGGACCGGTTTTCCCGGTAATCCGTATTTGAC (site CTAGTATCTGT) | 0.00618
71 | CTCGAATCATGGACCGGTTTTCCCGGTAATCCGTATTTGAC (site CTCGAATCTGT) | 1.76
72 | CTCGACACATGGACCGGTTTTCCCGGTAATCCGTATTTGCT (site CTCAACACTAG) | 1.72
73 | CTCGACACATGGACCGGTTTTCCCGGTAATCCGTATTTGCT (site CTCCACACTAG) | 1.93
74 | CTCGACACATGGACCGGTTTTCCCGGTAATCCGTATTTGCT (site CTCGACACTAG) | 2.25
75 | CTCGACACATGGACCGGTTTTCCCGGTAATCCGTATTTGCT (site CTCTACACTAG) | 2.03
